Results reported in ChEMBL document CHEMBL5335767, “Synthesis and study of new siderophore analog-ciprofloxacin conjugates with antibiotic activities against Pseudomonas aeruginosa and Burkholderia spp” (Eur J Med Chem, 2023).
≈ marks a conversion by molar mass, not a printed value.

Columns and labels:
[1] = test system: Burkholderia thailandensis; assay: Antibacterial activity against Burkholderia thailandensis E264TS32C12 under 1 uM FeCl3 medium by CLSI protocol based microdilution method; assay type: functional
[2] = test system: Burkholderia pseudomallei; assay: Antibacterial activity against Burkholderia pseudomallei BPS2020IRBA005 under muller hinton medium by CLSI protocol based microdilution method; assay type: functional
[3] = test system: Burkholderia pseudomallei; assay: Antibacterial activity against Burkholderia pseudomallei BPS2020IRBA003 under muller hinton medium by CLSI protocol based microdilution method; assay type: functional
[4] = test system: Pseudomonas aeruginosa; assay: Antibacterial activity against Pseudomonas aeruginosa AM85 under succinate minimum medium by CLSI protocol based microdilution method; assay type: functional
[5] = test system: Burkholderia pseudomallei; assay: Antibacterial activity against Burkholderia pseudomallei BPS2020IRBA002 under 1 uM FeCl3 medium by CLSI protocol based microdilution method; assay type: functional
[6] = test system: Burkholderia thailandensis; assay: Antibacterial activity against Burkholderia thailandensis E264TS32C12 under muller hinton medium by CLSI protocol based microdilution method; assay type: functional
[7] = test system: Pseudomonas aeruginosa; assay: Antibacterial activity against Pseudomonas aeruginosa PAO1 under 1 uM FeCl3 medium by CLSI protocol based microdilution method; assay type: functional
[8] = test system: Burkholderia thailandensis; assay: Antibacterial activity against Burkholderia thailandensis E264TS32C47 under succinate minimum medium by CLSI protocol based microdilution method; assay type: functional
[9] = test system: Burkholderia pseudomallei; assay: Antibacterial activity against Burkholderia pseudomallei K96243 under muller hinton medium by CLSI protocol based microdilution method; assay type: functional
[10] = test system: Pseudomonas aeruginosa; assay: Antibacterial activity against Pseudomonas aeruginosa PAO1 under muller hinton medium by CLSI protocol based microdilution method; assay type: functional
[11] = test system: Burkholderia pseudomallei; assay: Antibacterial activity against Burkholderia pseudomallei BPS2020IRBA003 under succinate minimum medium by CLSI protocol based microdilution method; assay type: functional
[12] = test system: Pseudomonas aeruginosa; assay: Antibacterial activity against Pseudomonas aeruginosa PAD07 under muller hinton medium by CLSI protocol based microdilution method; assay type: functional
[13] = test system: Pseudomonas aeruginosa; assay: Antibacterial activity against Pseudomonas aeruginosa PAD07 under succinate minimum medium by CLSI protocol based microdilution method; assay type: functional
[14] = test system: Burkholderia pseudomallei; assay: Antibacterial activity against Burkholderia pseudomallei BPS2020IRBA001 under 1 uM FeCl3 medium by CLSI protocol based microdilution method; assay type: functional
[15] = test system: Burkholderia pseudomallei; assay: Antibacterial activity against Burkholderia pseudomallei BPS2020IRBA002 under succinate minimum medium by CLSI protocol based microdilution method; assay type: functional
[16] = Antibacterial activity against Burkholderia pseudomallei BPS2020IRBA005 under 1 uM FeCl3 medium by CLSI protocol based microdilution method; assay type: functional; details: Burkholderia thailandensis
[17] = test system: Burkholderia thailandensis; assay: Antibacterial activity against Burkholderia thailandensis E264TS32C10 under succinate minimum medium by CLSI protocol based microdilution method; assay type: functional
[18] = test system: HepG2; assay: Cytotoxicity against human HepG2 cells at 23 ug/ml after 48 hrs by CellTiter-Glo luminescent cell viability assay; assay type: toxicity, cell-based; details: hepg2, 48 h, dose 23 µg/ml
[19] = test system: Burkholderia thailandensis; assay: Antibacterial activity against Burkholderia thailandensis E264TS32C10 under 1 uM FeCl3 medium by CLSI protocol based microdilution method; assay type: functional
[20] = test system: Burkholderia thailandensis; assay: Antibacterial activity against Burkholderia thailandensis E264 under succinate minimum medium by CLSI protocol based microdilution method; assay type: functional
[21] = test system: Pseudomonas aeruginosa; assay: Antibacterial activity against Pseudomonas aeruginosa PAO1 under succinate minimum medium by CLSI protocol based microdilution method; assay type: functional
[22] = test system: Pseudomonas aeruginosa; assay: Antibacterial activity against Pseudomonas aeruginosa AM85 under 1 uM FeCl3 medium by CLSI protocol based microdilution method; assay type: functional
[23] = test system: Burkholderia thailandensis; assay: Antibacterial activity against Burkholderia thailandensis E264 under 1 uM FeCl3 medium by CLSI protocol based microdilution method; assay type: functional
[24] = test system: Burkholderia pseudomallei; assay: Antibacterial activity against Burkholderia pseudomallei BPS2020IRBA001 under succinate minimum medium by CLSI protocol based microdilution method; assay type: functional
[25] = test system: Burkholderia pseudomallei; assay: Antibacterial activity against Burkholderia pseudomallei K96243 under 1 uM FeCl3 medium by CLSI protocol based microdilution method; assay type: functional
[26] = test system: Burkholderia pseudomallei; assay: Antibacterial activity against Burkholderia pseudomallei BPS2020IRBA003 under 1 uM FeCl3 medium by CLSI protocol based microdilution method; assay type: functional
[27] = test system: Burkholderia thailandensis; assay: Antibacterial activity against Burkholderia thailandensis E264TS32C47 under muller hinton medium by CLSI protocol based microdilution method; assay type: functional
[28] = test system: Burkholderia pseudomallei; assay: Antibacterial activity against Burkholderia pseudomallei BPS2020IRBA001 under muller hinton medium by CLSI protocol based microdilution method; assay type: functional
[29] = test system: Pseudomonas aeruginosa; assay: Antibacterial activity against Pseudomonas aeruginosa AM85 under muller hinton medium by CLSI protocol based microdilution method; assay type: functional
[30] = test system: Burkholderia pseudomallei; assay: Antibacterial activity against Burkholderia pseudomallei BPS2020IRBA002 under muller hinton medium by CLSI protocol based microdilution method; assay type: functional
[31] = test system: Burkholderia pseudomallei; assay: Antibacterial activity against Burkholderia pseudomallei BPS2020IRBA004 under muller hinton medium by CLSI protocol based microdilution method; assay type: functional
[32] = test system: Burkholderia thailandensis; assay: Antibacterial activity against Burkholderia thailandensis E264TS32C10 under muller hinton medium by CLSI protocol based microdilution method; assay type: functional
[33] = test system: Burkholderia thailandensis; assay: Antibacterial activity against Burkholderia thailandensis E264TS32C12 under succinate minimum medium by CLSI protocol based microdilution method; assay type: functional
[34] = test system: Burkholderia thailandensis; assay: Antibacterial activity against Burkholderia thailandensis E264TS32C47 under 1 uM FeCl3 medium by CLSI protocol based microdilution method; assay type: functional
[35] = test system: Burkholderia pseudomallei; assay: Antibacterial activity against Burkholderia pseudomallei K96243 under succinate minimum medium by CLSI protocol based microdilution method; assay type: functional
[36] = test system: Burkholderia thailandensis; assay: Antibacterial activity against Burkholderia thailandensis E264 under muller hinton medium by CLSI protocol based microdilution method; assay type: functional
[37] = test system: Pseudomonas aeruginosa; assay: Antibacterial activity against Pseudomonas aeruginosa PAD07 under 1 uM FeCl3 medium by CLSI protocol based microdilution method; assay type: functional
[38] = test system: Burkholderia pseudomallei; assay: Antibacterial activity against Burkholderia pseudomallei BPS2020IRBA005 under succinate minimum medium by CLSI protocol based microdilution method; assay type: functional

Row | Structure (SMILES) | MIC [1] [µg/mL] | MIC [2] [µg/mL] | MIC [3] [µg/mL] | MIC [4] [µg/mL] | MIC [5] [µg/mL] | MIC [6] [µg/mL] | MIC [7] [µg/mL] | MIC [8] [µg/mL] | MIC [9] [µg/mL] | MIC [10] [µg/mL] | MIC [11] [µg/mL] | MIC [12] [µg/mL] | MIC [13] [µg/mL] | MIC [14] [µg/mL] | MIC [15] [µg/mL] | MIC [16] [µg/mL] | MIC [17] [µg/mL] | Activity [18] | MIC [19] [µg/mL] | MIC [20] [µg/mL] | also measured
1 | O=C(O)c1cn(C2CC2)c2cc(N3CCN(C(=O)c4ccc(O)c(O)c4)CC3)c(F)cc2c1=O | > 128 | > 128 | 128 (≈ 274 µM) | 128 (≈ 274 µM) | > 128 | > 128 | 8 (≈ 17.1 µM) | > 128 | 64 (≈ 137 µM) | 8 (≈ 17.1 µM) | 128 (≈ 274 µM) | 8 (≈ 17.1 µM) | 8 (≈ 17.1 µM) | 128 (≈ 274 µM) | > 128 | > 128 | > 128 | Non-Toxic | > 128 | 64 (≈ 137 µM) | MIC [21]: 8 µg/mL (≈ 17.1 µM); MIC [22]: > 128 µg/mL; MIC [23]: 128 µg/mL (≈ 274 µM); MIC [24]: 128 µg/mL (≈ 274 µM); MIC [25]: 64 µg/mL (≈ 137 µM); MIC [26]: 128 µg/mL (≈ 274 µM); MIC [27]: > 128 µg/mL; MIC [28]: > 128 µg/mL; MIC [29]: > 128 µg/mL; MIC [30]: > 128 µg/mL; MIC [31]: 128 µg/mL (≈ 274 µM); MIC [32]: > 128 µg/mL; MIC [33]: > 128 µg/mL; MIC [34]: > 128 µg/mL; MIC [35]: 64 µg/mL (≈ 137 µM); MIC [36]: 128 µg/mL (≈ 274 µM); MIC [37]: 8 µg/mL (≈ 17.1 µM); MIC [38]: > 128 µg/mL
2 | O=C(O)c1cn(C2CC2)c2cc(N3CCN(C(=O)c4cccc(O)c4O)CC3)c(F)cc2c1=O | 16 (≈ 34.2 µM) | 64 (≈ 137 µM) | 16 (≈ 34.2 µM) | 128 (≈ 274 µM) | 16 (≈ 34.2 µM) | 32 (≈ 68.5 µM) | 32 (≈ 68.5 µM) | 8 (≈ 17.1 µM) | 8 (≈ 17.1 µM) | 16 (≈ 34.2 µM) | 8 (≈ 17.1 µM) | 8 (≈ 17.1 µM) | 1 (≈ 2.14 µM) | 32 (≈ 68.5 µM) | 8 (≈ 17.1 µM) | 8 (≈ 17.1 µM) | 32 (≈ 68.5 µM) | Non-Toxic | 32 (≈ 68.5 µM) | 8 (≈ 17.1 µM) | MIC [21]: 32 µg/mL (≈ 68.5 µM); MIC [22]: > 128 µg/mL; MIC [23]: 8 µg/mL (≈ 17.1 µM); MIC [24]: 32 µg/mL (≈ 68.5 µM); MIC [25]: 4 µg/mL (≈ 8.56 µM); MIC [26]: 16 µg/mL (≈ 34.2 µM); MIC [27]: 16 µg/mL (≈ 34.2 µM); MIC [28]: 32 µg/mL (≈ 68.5 µM); MIC [29]: > 128 µg/mL; MIC [30]: 16 µg/mL (≈ 34.2 µM); MIC [31]: 32 µg/mL (≈ 68.5 µM); MIC [32]: 32 µg/mL (≈ 68.5 µM); MIC [33]: 16 µg/mL (≈ 34.2 µM); MIC [34]: 8 µg/mL (≈ 17.1 µM); MIC [35]: 2 µg/mL (≈ 4.28 µM); MIC [36]: 16 µg/mL (≈ 34.2 µM); MIC [37]: 8 µg/mL (≈ 17.1 µM); MIC [38]: 8 µg/mL (≈ 17.1 µM)
